The target in one data set is CYP3A4 (Homo sapiens, UniProt P08684). As to conditions: FIG. 16 diagram; cited from earlier work.
In data set [1] the test system is HuH-7 CYP3A5 *3/*3 cell line. In words: Midazolam and tacrolimus metabolism assay, parental HuH-7 cells. The method, then: (§1) To further characterize the cell lines, metabolism assays were performed to determine the effect of each genetic variant on metabolism. FIG. 11 illustrates a generalized representative assay. In this exemplary assay, a cell line is plated on a collagen I-coated plate (or in a well of a multi-well plate, etc.), layered with an extracellular-matrix-like hydrogel (e.g., […], Corning Life Sciences, Tewksbury, Mass.), induced with a suitable inducer (e.g., rifampin and phenytoin), then treated with the substrate MDZ. The MDZ substrate is converted by the metabolic processes of the cell line to 1-OH MDZ or 4-OH MDZ, which can be measured using, for example high performance liquid chromatography (HPLC). The assay can be altered depending on the substrate, cell line, genetic variant, and any other experimental conditions.
(§2) In this metabolism assay, all three exemplary cell lines and HuH-7 parental cell line were grown to confluency and then layered with […] (Corning Life Sciences, Tewksbury, Mass.). The cells were then induced with rifampicin and phenytoin for three days and treated with substrate Tac overnight. Cell culture media were collected after treatment and assayed for Tac disappearance using liquid chromatography-mass spectrometry.
(§3) HuH-7 and engineered cells were grown to confluence in 12 well BIOCOAT collagen I multi-well plates (Corning, Inc., Corning, N.Y.) for 3-4 weeks in DMEM. Cells were then overlaid with […] matrix (Corning, Inc., Corning, N.Y.) and then induced for four days by adding 100 μM phenytoin (USP) and 10 μM rifampicin to the cell culture, with media changed daily with inducers. On the fourth day, 500 μl of media was added to the cells with 100 μM phenytoin (USP) and 10 μM rifampicin with either equal volumes of methanol, as a negative control, or Midazolam (MDZ; Cerrilliant Corp., Round Rock, Tex.) diluted in methanol so that MDZ final concentration was 5 μM in cell culture media. Cells were incubated overnight, and media was collected and assayed for MDZ, 1-OH MDZ and 4-OH MDZ by high performance liquid chromatography.
(§4) To determine the metabolic function of the engineered cell lines, the cells were treated with MDZ at 1628 ng/mL (5 μM) in cell culture overnight. The following day, the cell culture media was harvested and analyzed by liquid chromatography/mass spectrometry (LC/MS) at the University of Minnesota Department of Experimental and Clinical Pharmacology to quantify the concentrations of MDZ and the metabolites 1-hydroxy-midazolam (1-OH MDZ) and 4-hydroxy-midazolam (4-OH MDZ).
(§5) Likewise, Tac was added to cells and analyzed by LC/MS at the University of Minnesota Department of Experimental and Clinical Pharmacology. […]

Another data set deals with CYP3A5 (Homo sapiens, UniProt P20815). The settings on record: FIG. 16 diagram; cited from earlier work.
Chain of CYP3A5 (P20815 whole entry): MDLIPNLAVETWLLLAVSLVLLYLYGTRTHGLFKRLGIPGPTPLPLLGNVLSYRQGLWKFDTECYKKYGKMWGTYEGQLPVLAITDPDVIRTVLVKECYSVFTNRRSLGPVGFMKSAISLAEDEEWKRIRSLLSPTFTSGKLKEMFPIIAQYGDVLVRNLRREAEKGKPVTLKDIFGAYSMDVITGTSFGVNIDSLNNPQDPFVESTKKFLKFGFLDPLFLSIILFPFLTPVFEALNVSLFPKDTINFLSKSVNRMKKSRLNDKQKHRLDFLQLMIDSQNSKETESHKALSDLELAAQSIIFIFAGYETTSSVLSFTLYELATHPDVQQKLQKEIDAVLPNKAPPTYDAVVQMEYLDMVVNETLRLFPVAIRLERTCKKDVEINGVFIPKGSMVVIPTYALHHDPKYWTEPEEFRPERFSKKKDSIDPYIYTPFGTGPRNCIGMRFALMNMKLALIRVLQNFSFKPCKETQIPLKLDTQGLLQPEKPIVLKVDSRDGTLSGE
The subject of data set [2] is CYP3A5 *1/*3 sd cell line. In words: Midazolam and tacrolimus metabolism assay, CYP3A5 *1/*3 sd cells. The protocol:
as §1, §2, §3, §4, §5

In data set [3] the test system is CYP3A5 *1/*1 dd cell line. Kind of data set: Midazolam and tacrolimus metabolism assay, CYP3A5 *1/*1 dd cells. The protocol:
as §1, §2
HuH-7 and engineered cells were grown to confluence in 12 well BIOCOAT collagen I multi-well plates (Corning, Inc., Corning, N.Y.) for 3-4 weeks in DMEM. […]
as §4, §5

In data set [4] the test system is CYP3A5 *1/*3 pm cell line. Kind of data set: Midazolam and tacrolimus metabolism assay, CYP3A5 *1/*3 pm cells. The protocol:
as §1, §2, §3, §4, §5

The conditions of data set [5]: kidney transplant patients, cited from earlier work.

Like-named read-outs stand apart in the source and are kept apart here.

Chain of CYP3A4 (P08684 whole entry): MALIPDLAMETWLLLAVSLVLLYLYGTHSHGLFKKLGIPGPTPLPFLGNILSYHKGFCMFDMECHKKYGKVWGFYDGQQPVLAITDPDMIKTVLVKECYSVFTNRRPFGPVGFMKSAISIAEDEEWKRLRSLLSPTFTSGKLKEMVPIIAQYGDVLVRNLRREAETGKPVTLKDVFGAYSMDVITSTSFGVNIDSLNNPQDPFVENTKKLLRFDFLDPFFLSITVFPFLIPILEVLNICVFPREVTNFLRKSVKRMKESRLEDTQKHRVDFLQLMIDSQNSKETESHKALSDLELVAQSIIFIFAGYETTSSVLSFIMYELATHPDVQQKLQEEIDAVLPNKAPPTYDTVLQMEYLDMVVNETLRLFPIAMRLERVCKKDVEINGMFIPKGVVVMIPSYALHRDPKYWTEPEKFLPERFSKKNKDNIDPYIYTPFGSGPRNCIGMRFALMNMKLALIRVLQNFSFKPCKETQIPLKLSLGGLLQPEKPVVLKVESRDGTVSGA

Turning to `Cc1ccc(-c2c(-c3nn(C)c4ncnc(N5CC[C@H](N6CCCCC6)C5)c34)cnn2C)cc1` [CYP3CIDE], at CYP3A4, the “inhibitory function on CYP3A4” value is on record as “strong inhibitor”. Also, the “inhibition of 1-OH MDZ production” value in data set [1] (50 μM CYP3CIDE, HuH-7 cells, MDZ substrate, FIG. 19) is given as “nearly completely inhibited”. Further, the “inhibition of 4-OH MDZ production” value in data set [1] (50 μM CYP3CIDE, HuH-7 cells, MDZ substrate, FIG. 20) was “inhibited”. The “inhibitory function on CYP3A5” value at CYP3A5 is recorded as “mild inhibitory effect”.
Take `Cc1ncc2n1-c1ccc(Cl)cc1C(c1ccccc1F)=NC2` [Midazolam, midazolam]: the MDZ disappearance result in data set [2] (CYP3A5 *1/*3 sd, FIG. 13, five biological replicates) was “more efficiently than the parental HuH-7 cell line”; in data set [3] (FIG. 13, five biological replicates), “the most MDZ disappearance”; in data set [4] (CYP3A5 *1/*3 pm, FIG. 13, five biological replicates), “more efficiently than the parental HuH-7 cell line”. For the same compound, the “Midazolam (ng/mL) No CYP3CIDE” value in data set [2] (CYP3A5 *1/*3 sd, start 5 μM MDZ, overnight, no CYP3CIDE, mean ± SD of six) is listed as 971 ± 110 ng/mL; in data set [1] (HuH-7 CYP3A5 *3/*3, start 5 μM (approximately 1629 ng/ml) MDZ, overnight, no CYP3CIDE, mean ± SD of six) it was 1458 ± 62 ng/mL; in data set [3] (start 5 μM MDZ, overnight, no CYP3CIDE, mean ± SD of six), 724 ± 200 ng/mL; in data set [4] (CYP3A5 *1/*3 pm, start 5 μM MDZ, overnight, no CYP3CIDE, mean ± SD of six) it was 1130 ± 45 ng/mL. Further, the “Midazolam (ng/mL) With CYP3CIDE” value in data set [2] (CYP3A5 *1/*3 sd, start 5 μM MDZ, overnight, with 50 μM CYP3CIDE, mean ± SD of six) was 1241 ± 64 ng/mL; in data set [1] (HuH-7 CYP3A5 *3/*3, start 5 μM (approximately 1629 ng/ml) MDZ, overnight, with 50 μM CYP3CIDE, mean ± SD of six) it was 1534 ± 32 ng/mL; in data set [3] (start 5 μM MDZ, overnight, with 50 μM CYP3CIDE, mean ± SD of six), 1189 ± 90 ng/mL; in data set [4] (CYP3A5 *1/*3 pm, start 5 μM MDZ, overnight, with 50 μM CYP3CIDE, mean ± SD of six) it was 1224 ± 18 ng/mL.
For `C=CC[C@@H]1/C=C(\C)C[C@H](C)C[C@H](OC)[C@H]2O[C@@](O)(C(=O)C(=O)N3CCCC[C@H]3C(=O)O[C@H](/C(C)=C/[C@@H]3CC[C@@H](O)[C@H](OC)C3)[C@H](C)[C@@H](O)CC1=O)[C@H](C)C[C@@H]2OC` [Tac, tacrolimus], the Tac disappearance entry in data set [2] (human, 13 ng/mL) was “more efficiently than the parental HuH-7 cell line”; in data set [4] (human, 13 ng/mL) it was “more efficiently than the parental HuH-7 cell line”. Further, the “reduction in log-transformed dose-normalized troughs” value is on record as 36% in data set [5] (one CYP3A5 *1 allele present) and 59% in data set [5] (two CYP3A5 *1 alleles present).

The values above are taken from US20200032269A1, “GENETICALLY MODIFIED CELL LINES FOR METABOLIC STUDIES” (Hennepin Healthcare Research Institute, priority 2017, published 2020).
